Legend:
[1] = target: T1, human Kir2.1 (Homo sapiens, UniProt P63252); experiment: Kir2.1 thallium flux assay; assay type: cell-based; settings: for Thallium Flux Potency IC50 / IC50: T-REx-HEK-293 cells expressing human Kir2.1, 4PL fit, top concentration 30 μM; for Thallium Flux Efficacy (% Inhibition) / Emax: efficacy from 4PL fit, relative to ML133; for IC50: read-out: Thallium Flux Potency IC50; for inhibition at 30 µM: compounds not fitting 4PL (> 10 μM): value at 30 μM relative to 30 μM ML133, read-out: Thallium Flux Efficacy (% Inhibition), 30 μM measured value; for Emax: read-out: Thallium Flux Efficacy (% Inhibition)
T1 construct: expressed in transfected cells
T1 sequence (P63252 1-427): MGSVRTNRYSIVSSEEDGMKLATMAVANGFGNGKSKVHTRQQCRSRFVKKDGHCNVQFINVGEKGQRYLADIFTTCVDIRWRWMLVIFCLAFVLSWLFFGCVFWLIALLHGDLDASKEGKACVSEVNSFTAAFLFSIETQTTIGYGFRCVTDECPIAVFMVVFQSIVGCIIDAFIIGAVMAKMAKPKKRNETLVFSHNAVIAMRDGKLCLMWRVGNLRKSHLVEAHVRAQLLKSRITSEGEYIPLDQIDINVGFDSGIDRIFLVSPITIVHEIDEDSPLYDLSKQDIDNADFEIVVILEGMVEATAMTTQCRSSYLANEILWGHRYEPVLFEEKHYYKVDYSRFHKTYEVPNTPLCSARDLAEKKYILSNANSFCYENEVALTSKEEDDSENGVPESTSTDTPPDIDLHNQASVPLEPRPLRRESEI
Method: Thallium Flux Assay Experimental Conditions
The Tl+ flux assays were conducted as previously described with modifications optimized for Kir2.1 cell line as described below.1
Briefly, stable T-REx-HEK-293 cells expressing human K ir2.1 were cultured in DMEM growth medium (Catalog #11965-092, Gibco, Billings, MT) containing 10% heat-inactivated FBS (Catalog #16140, Gibco), 100 U/mL PenStrep, 5 μg/mL Blasticidin S, and 250 μg/mL Hygromycin.
The day prior to the experiment, cells at ~90% confluency were resuspended in plating media, which consisted of the same components as the growth media, except that heat-inactivated FBS was replaced with dialyzed FBS (Catalog #26400, Gibco). Tetracycline was added to the plating media to achieve a final concentration of 1 μg/ml to induce hKir2.1 expression. Cells were then counted and plated at 15,000 cells/well in black-walled, amine- or PDL- coated, 384-well plates at 20 μl/well (Corning, Corning, NY). On the day of experiment, the media was removed from the cell plate and replaced with 20 μl/well of Tl+-sensitive dye loading solution containing 2.5 μg/ml Thallos-AM (Catalog #11000-050, ION Biosciences, San Marcos, TX) in assay buffer using a Multidrop Combi dispenser (Thermo Fisher Scientific, Walkham, MA). Cell plates loaded with dye solution were incubated for 1 hour at room temperature. Following incubation, the cell plate was washed with HBSS assay buffer containing 20 mM HEPES using a BioTek ELx 405 TS plate washer (Agilent, Santa Clara, CA), leaving 20 μl of assay buffer in each well. The cell plate was then transferred to a Panoptic kinetic imaging plate reader (WaveFront Biosciences, Franklin, TN) for imaging at 1 Hz, 482/35 nm excitation and 536/40 nm emission for 10 seconds. Following this, 20 μl/well of HBSS assay buffer containing test compounds at 2-fold over their final concentrations were added and imaging continued for another eight minutes, after which 10 μl/well of chloride-free Tl+ stimulus solution was added (Catalog #11000-050, ION Biosciences). The final Tl2SO4 concentration in cell plate post-Tl+ stimulus solution addition was 0.25 mM. Images were collected for an additional two minutes. A ten-point concentration series from 30 μM to 2 nM with a 1:3 dilution factor was generated using an Echo liquid handler 650 (Labcyte, San Jose, CA). Final DMSO concentration, 0.3% (v/v) in the assay was constant across all compound concentrations.
The initial slopes of the Tl+-induced fluorescence changes were fit to a four-parameter logistic equation using our in-house software Waveguide to determine potency and efficacy values. […]
Bauer, J. A.; Days, E. L.; Lindsley, C. […]

[2] = Rat PK PBL cassette (i.v.); assay type: in vivo, Sprague-Dawley rat; settings: Sprague-Dawley, iv, male SD rat, 0.2 mg/kg i.v. cassette
Text: While ML133 has found use as a Kir2.1 tool molecule across many disease models, the in vivo PK of this and related compounds within the dibenzylamine chemotype have not previously been characterized. As a highly efficient method for profiling the PK of a compound set, we therefore examined ML133 (alongside 9 additional next-generation Kir2.1 inhibitors) in our rat PK PBL cassette dosing platform (Table ). − From this experimental setup, administration of a 4-compound bolus dose, plus a standard control, can be used to determine a variety of PK parameters in a high-throughput fashion. Specifically, Sprague–Dawley (SD) rats were given 0.2 mg/kg of each Kir2.1 inhibitor (i.v. dosing, 4 compounds +1 control, total dose 1 mg/kg) with PK measured across set time points up to 24 h. Additionally, a separate cohort of animals was utilized to assess total plasma-brain levels (PBL, ratio reported as Kp) of compound at a 0.25 time point. In this fashion, standard plasma-based PK parameters (elimination t 1/2, […] (MRT), plasma clearance (CLp), and volume of distribution (Vss)) were measured alongside a parallel assessment of total brain exposure.
PK PBL Cassette Experimental Conditions
4 compounds plus one control were formulated as a solution in ethanol, PEG400, and DMSO (1:3:6 v/v, respectively) at a concentration of 1 mg/mL and administered as a single IV dose (1 mL/kg, 0.2 mg/kg per compound, total 1 mg/kg) to male, Sprague Dawley rats (n = 1) via injection into a surgically -implanted jugular vein catheter. Blood samples were collected serially from a surgically implanted carotid artery catheter in each animal over multiple post -administration time points (0.033, 0.117, 0.25, 0.5, 1, 2, 4, 7, and 24 hours) into chilled, K 2EDTA anticoagulant - fortified tubes and immediately placed on wet ice. The blood samples were then centrifuged (1700 rcf, 5 minutes, 4 °C) to ob tain plasma samples, which were stored at -80 °C until analysis […]
For determination of the brain over plasma ratio (K p), the same cassette of compounds plus control were formulated in ethanol, PEG400, and DMSO (1:3:6 v/v, respectively) and administered as a single IV dose (1 mL/kg, 0.2 mg/kg per compound, total 1 mg/kg) to male, Sprague Dawley rats ( n = 1) via injection into a surgically-implanted jugular vein catheter. At 15 min post dosing, blood sample was collected terminally into chilled, K 2EDTA anticoagulant-fortified tube and immediately placed on wet ice. The bloo d sample was then centrifuged (1700 rcf, 5 minutes, 4 °C) to obtain plasma sample. At the same post-administration time point, whole brain sample was obtained by rapid dissection, rinsed with PBS, and immediately frozen in individual tissue collection box (dry ice). All brain and plasma samples were stored at -80 °C until […]
Samples preparation for bioanalysis
Plasma samples from the in-life phase of the study were thawed at ambient temperature (benchtop), and then aliquots (20 µL per sample) were transferred to a 96-shallow-well (V-bottom) plate. Matrix-matched quality control (QC) samples and a standard curve of each analyte (1 mg/mL DMSO stock solution) were prepared in blank rat plasma (K2EDTA-treated) via serial dilution and transferred (20 µL each) to the plate along with multiple blank plasma samples. MeCN (120 µL) containing IS (10 nM carbamazepine) was added to each well of the plate to precipitate protein. The plate was then centrifuged (4000 rcf, 5 minutes, ambient temperature), and resulting supernatants (60 µL each) were transferred to a new 96-shallow-well (V-bottom) plate containing an equal volume (60 µL per well) of water (Milli-Q purified). The plate was then sealed in preparation for LC-MS/MS analysis.
Preparation of brain samples was identical to that of plasma samples except for the following modifications. While thawing, brains were weighed (inside their collection boxes using a universal empty collection box tare weight) and then subjected to mechanical homogenization […]

SMILES	Thallium Flux Potency IC50 [1]	Thallium Flux Efficacy (% Inhibition) [1]	IC50 [1]	inhibition at 30 µM [1]	further results
O=C1CCCN1c1ccc(CNCc2cccc3ccccc23)cc1 [Compound 3d]	inactive	inactive			
CP(C)(=O)c1ccc(CNCc2cccc3ccccc23)cc1 [Compound 3l]	inactive	inactive			
COc1ccc(CNCc2cccc3ncccc23)cc1 [Compound 5d]	inactive	inactive			
FC(F)Oc1ccc(CNCc2cccc3ccccc23)cc1 [Compound 3a]			> 10 µM	45%	
N#Cc1ccc(CNCc2cccc3ccccc23)cc1 [Compound 3b]			> 10 µM	88%	
COc1ccc2c(c1)CCN(Cc1cccc3ccccc13)C2 [Compound 3g]	inactive	inactive			
c1ccc2c(c1)CN(Cc1cccc3ccccc13)CCO2 [Compound 3h]	inactive	inactive			
O=S1(=O)CCCN1c1ccc(CNCc2cccc3ccccc23)cc1 [Compound 3k]	inactive	inactive			
Cc1cc(C)n(-c2ccc(CNCc3cccc4ccccc34)cc2)n1 [Compound 3e]			> 10 µM	50%	
OCc1ccc(CNCc2cccc3ccccc23)cc1 [Compound 3f]	inactive	inactive			
FS(F)(F)(F)(F)c1ccc(CNCc2cccc3ccccc23)cc1 [Compound 3c]	inactive	inactive			
COc1ccc(CNCc2ccnc3ccccc23)cc1 [Compound 5e]			> 10 µM	75%	
COCCOc1ccc(CNCc2cccc3ccccc23)cc1 [Compound 3j]	inactive	inactive			
COc1ccc(CNCc2nccc3ccccc23)cc1 [Compound 5a]	inactive	inactive			
COc1ccc(CNCc2cccc3cnccc23)cc1 [Compound 5c]			> 10 µM	45%	

Continued, in another order:

Thallium Flux Potency IC50 [1]	Thallium Flux Efficacy (% Inhibition) [1]	IC50 [1]	inhibition at 30 µM [1]	SMILES	further results
		> 10 µM	96%	COc1ccc(CNCc2ccc(N3CCCC3)cc2)cc1 [Compound 5v]	
		> 10 µM	53%	COc1ccc(CNCc2ccc(N3CCCCC3)cc2)cc1 [Compound 5w]	
inactive	inactive			COc1ccc(CNCc2cccc3c2OC(F)(F)O3)cc1 [Compound 5g]	
		8.5 µM		COc1ccc(CNCc2ccc(-c3cccc(C)c3)cc2)cc1 [Compound 5r]	Emax [1]: 99%; Kp at 0.25 h ([2]; brain and plasma, 0.25 time point (15 min post dosing), read-out: Kp (total brain to plasma ratio)): 2.29; AUC ([2]; plasma, n = 1, read-out: AUC): 162 ng·h/mL; clearance ([2]; plasma, n = 1, read-out: CLp): 20.6 mL/min/kg; half-life ([2]; plasma, n = 1, read-out: Elim. t1/2 (converted)): 1.73 h; MRT ([2]; plasma, n = 1, read-out: MRT): 1.31 h; Vd ([2]; plasma, n = 1, read-out: Vss): 1.62 L/kg
		12.5 µM		COc1ccc(CNCc2ccc(-c3ccncc3)cc2)cc1 [Compound 5n]	Emax [1]: 98%
inactive	inactive			COc1ccc(CNCc2ccc(N3CCCCS3(=O)=O)cc2)cc1 [Compound 5z]	
		> 10 µM	46%	COc1ccc(CNCc2ccc(N3CCCCCC3)cc2)cc1 [Compound 5x]	
		> 10 µM	90%	COc1ccc(CNCc2ccc(-c3ccccn3)cc2)cc1 [Compound 5l]	
inactive	inactive			COc1ccc(CNCc2ccc(N3CCOCC3)cc2)cc1 [Compound 5y]	
inactive	inactive			COc1ccc(CNCc2ccc(-c3cnn(C)c3)cc2)cc1 [Compound 5u]	
inactive	inactive			COc1ccc(CNCc2cccn3ccnc23)cc1 [Compound 5f]	
		10.8 µM		COc1ccc(CNCc2ccc(-c3cccnc3)cc2)cc1 [Compound 5m]	Emax [1]: 98%
		9.3 µM		COc1ccc(CNCc2ccc(-c3ccc(F)cc3)cc2)cc1 [Compound 5q]	Emax [1]: 99%
		10.7 µM		COc1ccc(CNCc2ccc(-c3ccccc3F)cc2)cc1 [Compound 5o]	Emax [1]: 102%
